According to PMC12102759 (Protein Science : A Publication of the Protein Society, 2025):
Like-named read-outs stand apart in the source and are kept apart here.

System: PABPC1 PABC
Type: binding, human
Conditions: DMS-BM library, bait PABPC1 PABC, row aa = residue at this position; for DMS-derived PSSM value (averaged), position R12: R = wild type; for DMS-derived PSSM value, position F9 / DMS-derived PSSM value (averaged), position F9 / DMS-derived PSSM value, position F14: F = wild type; for DMS-derived PSSM value, position T1: T = wild type
[1] = prey ATXN2, TLNPNAKEFNPRSF(averaged) over the two overlapping peptides
[2] = prey ATXN2, peptide KSTLNPNAKEFNPRSF, S = wild type
[3] = prey ATXN2, peptide TLNPNAKEFNPRSFSQ
[4] = prey ATXN2, peptide KSTLNPNAKEFNPRSF, P = wild type
[5] = prey ATXN2, peptide TLNPNAKEFNPRSFSQ, N = wild type
[6] = prey ATXN2, peptide TLNPNAKEFNPRSFSQ, S = wild type
[7] = prey ATXN2, peptide KSTLNPNAKEFNPRSF, N = wild type
[8] = prey ATXN2, TLNPNAKEFNPRSF(averaged) over the two overlapping peptides, L = wild type
[9] = prey ATXN2, peptide KSTLNPNAKEFNPRSF, L = wild type

TLNPNAKEFNPRSF(averaged) K7V (TLNPNAVEFNPRSF)
DMS-derived PSSM value (averaged), position K7 (prey ATXN2, TLNPNAKEFNPRSF(averaged) over the two overlapping peptides, K = wild type): 0.003972

TLNPNAKEFNPRSF(averaged) R12A (TLNPNAKEFNPASF)
DMS-derived PSSM value (averaged), position R12 [1]: 0.05134

KSTLNPNAKEFNPRSF S2A (KATLNPNAKEFNPRSF)
DMS-derived PSSM value, position S2 [2]: 0.03999

TLNPNAKEFNPRSFSQ F9L (TLNPNAKELNPRSFSQ)
DMS-derived PSSM value, position F9 [3]: 0

TLNPNAKEFNPRSF(averaged) F9V (TLNPNAKEVNPRSF)
DMS-derived PSSM value (averaged), position F9 [1]: 0.0004395

TLNPNAKEFNPRSF(averaged) F9W (TLNPNAKEWNPRSF)
DMS-derived PSSM value (averaged), position F9 [1]: 0.4279

KSTLNPNAKEFNPRSF P6D (KSTLNDNAKEFNPRSF)
DMS-derived PSSM value, position P6 [4]: 0

TLNPNAKEFNPRSFSQ N10W (TLNPNAKEFWPRSFSQ)
DMS-derived PSSM value, position N10 [5]: 0.06015

TLNPNAKEFNPRSFSQ T1E (ELNPNAKEFNPRSFSQ)
DMS-derived PSSM value, position T1 [3]: 0.003724

TLNPNAKEFNPRSFSQ S15T (TLNPNAKEFNPRSFTQ)
DMS-derived PSSM value, position S15 [6]: 0.0005737

TLNPNAKEFNPRSFSQ S15F (TLNPNAKEFNPRSFFQ)
DMS-derived PSSM value, position S15 [6]: 0.01014

KSTLNPNAKEFNPRSF S2M (KMTLNPNAKEFNPRSF)
DMS-derived PSSM value, position S2 [2]: 0.2211

TLNPNAKEFNPRSFSQ S13N (TLNPNAKEFNPRNFSQ)
DMS-derived PSSM value, position S13 [6]: 0.07115

TLNPNAKEFNPRSFSQ N5L (TLNPLAKEFNPRSFSQ)
DMS-derived PSSM value, position N5 [5]: 0.06159

KSTLNPNAKEFNPRSF S15H (KSTLNPNAKEFNPRHF)
DMS-derived PSSM value, position S15 [2]: 0.1165

TLNPNAKEFNPRSFSQ F9D (TLNPNAKEDNPRSFSQ)
DMS-derived PSSM value, position F9 [3]: 0.002637

TLNPNAKEFNPRSF(averaged) N5D (TLNPDAKEFNPRSF)
DMS-derived PSSM value (averaged), position N5 (prey ATXN2, TLNPNAKEFNPRSF(averaged) over the two overlapping peptides, N = wild type): 0.03885

TLNPNAKEFNPRSFSQ T1K (KLNPNAKEFNPRSFSQ)
DMS-derived PSSM value, position T1 [3]: 0.03828

KSTLNPNAKEFNPRSF A8R (KSTLNPNRKEFNPRSF)
DMS-derived PSSM value, position A8 (prey ATXN2, peptide KSTLNPNAKEFNPRSF, A = wild type): 0

TLNPNAKEFNPRSFSQ E8Q (TLNPNAKQFNPRSFSQ)
DMS-derived PSSM value, position E8 (prey ATXN2, peptide TLNPNAKEFNPRSFSQ, E = wild type): 0.04954

TLNPNAKEFNPRSFSQ T1F (FLNPNAKEFNPRSFSQ)
DMS-derived PSSM value, position T1 [3]: 0.0001584

KSTLNPNAKEFNPRSF P13I (KSTLNPNAKEFNIRSF)
DMS-derived PSSM value, position P13 [4]: 0.01276

KSTLNPNAKEFNPRSF S15V (KSTLNPNAKEFNPRVF)
DMS-derived PSSM value, position S15 [2]: 0.09383

KSTLNPNAKEFNPRSF N5A (KSTLAPNAKEFNPRSF)
DMS-derived PSSM value, position N5 [7]: 0

TLNPNAKEFNPRSF(averaged) A6E (TLNPNEKEFNPRSF)
DMS-derived PSSM value (averaged), position A6 (prey ATXN2, TLNPNAKEFNPRSF(averaged) over the two overlapping peptides, A = wild type): 0

TLNPNAKEFNPRSF(averaged) L2R (TRNPNAKEFNPRSF)
DMS-derived PSSM value (averaged), position L2 [8]: 0

TLNPNAKEFNPRSF(averaged) P11D (TLNPNAKEFNDRSF)
DMS-derived PSSM value (averaged), position P11 (prey ATXN2, TLNPNAKEFNPRSF(averaged) over the two overlapping peptides, P = wild type): 0.002991

KSTLNPNAKEFNPRSF N7D (KSTLNPDAKEFNPRSF)
DMS-derived PSSM value, position N7 [7]: 0.07378

TLNPNAKEFNPRSFSQ F14Q (TLNPNAKEFNPRSQSQ)
DMS-derived PSSM value, position F14 [3]: 0.1174

KSTLNPNAKEFNPRSF N12K (KSTLNPNAKEFKPRSF)
DMS-derived PSSM value, position N12 [7]: 0.009595

TLNPNAKEFNPRSFSQ S15D (TLNPNAKEFNPRSFDQ)
DMS-derived PSSM value, position S15 [6]: 0.0138

TLNPNAKEFNPRSF(averaged) R12H (TLNPNAKEFNPHSF)
DMS-derived PSSM value (averaged), position R12 [1]: 0.1075

TLNPNAKEFNPRSFSQ F14G (TLNPNAKEFNPRSGSQ)
DMS-derived PSSM value, position F14 [3]: 0.005512

KSTLNPNAKEFNPRSF P6I (KSTLNINAKEFNPRSF)
DMS-derived PSSM value, position P6 [4]: 0.3229

KSTLNPNAKEFNPRSF L4P (KSTPNPNAKEFNPRSF)
DMS-derived PSSM value, position L4 [9]: 0

TLNPNAKEFNPRSFSQ K7D (TLNPNADEFNPRSFSQ)
DMS-derived PSSM value, position K7 (prey ATXN2, peptide TLNPNAKEFNPRSFSQ, K = wild type): 0.01281

TLNPNAKEFNPRSF(averaged) L2M (TMNPNAKEFNPRSF)
DMS-derived PSSM value (averaged), position L2 [8]: 0.2157

TLNPNAKEFNPRSFSQ L2A (TANPNAKEFNPRSFSQ)
DMS-derived PSSM value, position L2 (prey ATXN2, peptide TLNPNAKEFNPRSFSQ, L = wild type): 0

KSTLNPNAKEFNPRSF L4W (KSTWNPNAKEFNPRSF)
DMS-derived PSSM value, position L4 [9]: 0
